Measured values as given in ChEMBL document CHEMBL1201862, “PubChem BioAssay data set” (2004).
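Cultured in 96-well plates, cells were exposed to test compound for 48 hours across five concentrations. Abbreviation: GI50, concentration required for 50% inhibition of growth.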 The source made the active and inactive calls. Rule as the data show it: active = GI50 up to about 1.1 µM and inactive = higher.

Legend:
Assay in all cases: DTP human tumour cell line panel, 48 h
[1] = tested on: 786-0
[2] = tested on: A549
[3] = tested on: ACHN
[4] = tested on: COLO 205
[5] = tested on: Hs-578T
[6] = tested on: IGROV-1
[7] = tested on: LOX IMVI
[8] = tested on: MCF7
[9] = tested on: MDA-MB-435
[10] = tested on: MDA-N
[11] = tested on: NCI-H23
[12] = tested on: NCI/ADR-RES
[13] = tested on: OVCAR-3
[14] = tested on: OVCAR-5
[15] = tested on: T47D
[16] = tested on: TK-10
[17] = tested on: UACC-257
[18] = tested on: UACC-62
[19] = tested on: NCI-H226
[20] = tested on: A498

SMILES | GI50 [1] | GI50 [2] | GI50 [3] | GI50 [4] | GI50 [5] | GI50 [6] | GI50 [7] | GI50 [8] | GI50 [9] | GI50 [10] | GI50 [11] | GI50 [12] | GI50 [13] | GI50 [14] | GI50 [15] | GI50 [16] | GI50 [17] | GI50 [18] | GI50 [19] | GI50 [20]
O=C1Nc2ccccc2/C1=N/NC(=S)Nc1ccc([N+](=O)[O-])cc1 | 4.81 µM (inactive) | 6.9 µM (inactive) | 6.84 µM (inactive) | 10.3 µM (inactive) | 15.6 µM (inactive) | 10.7 µM (inactive) | 2.94 µM (inactive) | 7.93 µM (inactive) | 6.19 µM (inactive) | 11.4 µM (inactive) | 13.8 µM (inactive) | 3.01 µM (inactive) | 13.4 µM (inactive) | 22.9 µM (inactive) | 10.4 µM (inactive) | 10 µM (inactive) | 21.1 µM (inactive) | 8.47 µM (inactive) | – | –
S=C(N/N=C\c1ccccn1)N(Cc1ccccn1)Cc1ccccn1 | 0.697 µM (active) | 2.3 µM (inactive) | 0.316 µM (active) | – | 16 µM (inactive) | 0.427 µM (active) | 0.646 µM (active) | 0.111 µM (active) | 4.45 µM (inactive) | 7.55 µM (inactive) | 1.87 µM (inactive) | 1.19 µM (inactive) | 1.94 µM (inactive) | 13 µM (inactive) | 1.46 µM (inactive) | 0.637 µM (active) | 4.82 µM (inactive) | 2.08 µM (inactive) | < 0.0419 µM (active) | –
CO/C(=N\N=C\c1ccc(Cl)c(Cl)c1)c1ccncc1 | > 10 µM (inactive) | > 10 µM (inactive) | 4.99 µM (inactive) | > 10 µM (inactive) | – | > 10 µM (inactive) | > 10 µM (inactive) | > 10 µM (inactive) | – | > 10 µM (inactive) | > 10 µM (inactive) | > 10 µM (inactive) | > 10 µM (inactive) | > 10 µM (inactive) | > 10 µM (inactive) | > 10 µM (inactive) | – | – | > 10 µM (inactive) | –
[O-][S+]1c2ccccc2SCSc2ccccc21 | > 100 µM (inactive) | > 100 µM (inactive) | > 100 µM (inactive) | > 100 µM (inactive) | – | – | – | > 100 µM (inactive) | – | > 100 µM (inactive) | > 100 µM (inactive) | > 100 µM (inactive) | > 100 µM (inactive) | > 100 µM (inactive) | 97.7 µM (inactive) | > 100 µM (inactive) | – | > 100 µM (inactive) | – | > 100 µM (inactive)
CC(C(O)c1ccccc1)[N+](=O)[O-] (stereo not drawn) | 6.93 µM (inactive) | 17.7 µM (inactive) | 16.3 µM (inactive) | 22.4 µM (inactive) | 28.2 µM (inactive) | 14.8 µM (inactive) | 2.29 µM (inactive) | 3.64 µM (inactive) | 18.5 µM (inactive) | – | 32.8 µM (inactive) | 28.1 µM (inactive) | 4.91 µM (inactive) | 24.1 µM (inactive) | 15.5 µM (inactive) | 28.6 µM (inactive) | 16.8 µM (inactive) | 20.2 µM (inactive) | 24.4 µM (inactive) | 17.5 µM (inactive)
NC(=O)/C=c1/c2ccccc2n2nc3ccccc3c12 | 8.67 µM (inactive) | 31.7 µM (inactive) | 13.6 µM (inactive) | 20.4 µM (inactive) | 31.2 µM (inactive) | 10.6 µM (inactive) | 4.78 µM (inactive) | 26.9 µM (inactive) | 16 µM (inactive) | 15.6 µM (inactive) | 22.1 µM (inactive) | 16.1 µM (inactive) | 15.7 µM (inactive) | 29.9 µM (inactive) | 7.01 µM (inactive) | 23.3 µM (inactive) | 20.3 µM (inactive) | 19.4 µM (inactive) | – | 32.1 µM (inactive)
O=C(/C=C1/Nc2ccc([N+](=O)[O-])cc2N/C1=C/C(=O)c1ccc(Cl)cc1)c1ccccc1 | 48.3 µM (inactive) | > 100 µM (inactive) | > 100 µM (inactive) | > 100 µM (inactive) | – | > 100 µM (inactive) | – | > 100 µM (inactive) | > 100 µM (inactive) | > 100 µM (inactive) | 20.3 µM (inactive) | 60.3 µM (inactive) | > 100 µM (inactive) | > 100 µM (inactive) | > 100 µM (inactive) | 59 µM (inactive) | > 100 µM (inactive) | 20.5 µM (inactive) | > 100 µM (inactive) | 35.6 µM (inactive)
Cc1csc(NNC(=O)Nc2ccccc2)n1 | > 100 µM (inactive) | > 100 µM (inactive) | > 100 µM (inactive) | > 100 µM (inactive) | > 100 µM (inactive) | > 100 µM (inactive) | > 100 µM (inactive) | > 100 µM (inactive) | > 100 µM (inactive) | > 100 µM (inactive) | > 100 µM (inactive) | > 100 µM (inactive) | – | > 100 µM (inactive) | > 100 µM (inactive) | – | > 100 µM (inactive) | > 100 µM (inactive) | > 100 µM (inactive) | > 100 µM (inactive)
CO[C@]12S[C@@H]3CCCC[C@@]31C(C)(C)C(=O)N2c1ccccc1 | 43.2 µM (inactive) | 67.3 µM (inactive) | 37.4 µM (inactive) | 14.4 µM (inactive) | 75 µM (inactive) | 46.2 µM (inactive) | 32.6 µM (inactive) | 27.4 µM (inactive) | 33.7 µM (inactive) | 42.2 µM (inactive) | 28.8 µM (inactive) | 23 µM (inactive) | 15.2 µM (inactive) | > 100 µM (inactive) | 30.7 µM (inactive) | 55.5 µM (inactive) | 33.8 µM (inactive) | 49.8 µM (inactive) | – | > 100 µM (inactive)
Cc1cc2[nH]c3c(C#N)c(-c4ccccc4)c(/C=N/c4ccc(Cl)cc4)c(=O)n3c2cc1C | > 100 µM (inactive) | > 100 µM (inactive) | > 100 µM (inactive) | > 100 µM (inactive) | – | – | > 100 µM (inactive) | > 100 µM (inactive) | > 100 µM (inactive) | > 100 µM (inactive) | > 100 µM (inactive) | > 100 µM (inactive) | > 100 µM (inactive) | > 100 µM (inactive) | > 100 µM (inactive) | > 100 µM (inactive) | > 100 µM (inactive) | – | > 100 µM (inactive) | > 100 µM (inactive)
COc1ccc(/C=C/C(=O)C(C)(C)Br)cc1 | 3.48 µM (inactive) | 20.3 µM (inactive) | 8.55 µM (inactive) | 15 µM (inactive) | 16.3 µM (inactive) | 1.71 µM (inactive) | 7.33 µM (inactive) | 5.11 µM (inactive) | 11.5 µM (inactive) | 7.57 µM (inactive) | 2.25 µM (inactive) | 24 µM (inactive) | 17.5 µM (inactive) | 12 µM (inactive) | 20.8 µM (inactive) | 14.6 µM (inactive) | 15.5 µM (inactive) | 12.7 µM (inactive) | – | 20 µM (inactive)
COC1CN(C)/C(=N\c2cccc3ccccc23)S1 (stereo not drawn) | > 10 µM (inactive) | > 10 µM (inactive) | > 10 µM (inactive) | > 10 µM (inactive) | > 10 µM (inactive) | > 10 µM (inactive) | > 10 µM (inactive) | > 10 µM (inactive) | > 10 µM (inactive) | > 10 µM (inactive) | > 10 µM (inactive) | > 10 µM (inactive) | – | > 10 µM (inactive) | > 10 µM (inactive) | > 10 µM (inactive) | > 10 µM (inactive) | > 10 µM (inactive) | – | –
O=c1cc(NNc2cccc(F)c2)[nH]c(=O)[nH]1 | 16.6 µM (inactive) | > 100 µM (inactive) | 35.6 µM (inactive) | 34.6 µM (inactive) | 83 µM (inactive) | 19.8 µM (inactive) | 18 µM (inactive) | – | – | 80.2 µM (inactive) | > 100 µM (inactive) | > 100 µM (inactive) | 16.5 µM (inactive) | > 100 µM (inactive) | 14.9 µM (inactive) | 14.2 µM (inactive) | 17.9 µM (inactive) | 35 µM (inactive) | > 100 µM (inactive) | > 100 µM (inactive)
Cc1ccc(Nc2nc(=O)c3c([nH]c4ccccc43)s2)cc1 | 14.5 µM (inactive) | 12.6 µM (inactive) | 16.2 µM (inactive) | 10.9 µM (inactive) | 27.2 µM (inactive) | 13.7 µM (inactive) | 13 µM (inactive) | – | 2.48 µM (inactive) | 2.34 µM (inactive) | – | 14.2 µM (inactive) | 14 µM (inactive) | – | 15.4 µM (inactive) | 11.3 µM (inactive) | 17.1 µM (inactive) | 3.84 µM (inactive) | – | 18.1 µM (inactive)
CCCN(CCC)CCc1ccc(OC2=CCN(C)CC2)cc1 | 39.9 µM (inactive) | > 100 µM (inactive) | 95.5 µM (inactive) | 50.6 µM (inactive) | 40.6 µM (inactive) | 67.3 µM (inactive) | 23 µM (inactive) | > 100 µM (inactive) | 33 µM (inactive) | 36.6 µM (inactive) | > 100 µM (inactive) | > 100 µM (inactive) | 79.3 µM (inactive) | > 100 µM (inactive) | > 100 µM (inactive) | 87.3 µM (inactive) | 20.3 µM (inactive) | 38 µM (inactive) | > 100 µM (inactive) | –
CC(=O)O[C@H]1CC[C@]2(C=O)[C@H]3CC[C@]4(C)[C@@H](C5=CC(=O)OC5)CC[C@]4(O)[C@@H]3CC[C@]2(O)C1 [STROPHANTHIDIN ACETATE] | 0.212 µM (active) | 0.0684 µM (active) | 0.047 µM (active) | 0.378 µM (active) | 0.45 µM (active) | 0.31 µM (active) | 0.222 µM (active) | – | 0.272 µM (active) | 0.282 µM (active) | 0.111 µM (active) | 0.197 µM (active) | 0.0982 µM (active) | 0.575 µM (active) | 0.407 µM (active) | 0.211 µM (active) | 0.362 µM (active) | 0.353 µM (active) | 0.681 µM (active) | 0.264 µM (active)
